Test results: patent US20240033264A1, “CDK INHIBITORS” (QILU REGOR THERAPEUTICS INC., priority 2020, published 2024)

Tests used:
CDK4/CyclinD1 = CDK4/CyclinD1 (Homo sapiens (Human), UniProt P11802); assay: Assay for inhibition of CDK4/CyclinD1 (Caliper microfluidic kinase assay); assay type: biochemical; settings: summary statement
Procedure: (§1) The CDK4 enzyme assay for IC50 determination was performed as follows. Microfluidic kinase detection technology (Caliper) was used to monitor the phosphorylation of peptide substrate by CDK4/CyclinD1. The total reaction volume was 15 μL containing buffer A (100 mM HEPES (pH 7.5), 0.1% BSA, 0.01% Triton X-100, 1 mM DTT, 10 mM MgCl2, 10 μM Sodium Orthovanadate, 10 μM Beta-Glycerophosphate), 200 μM ATP, 1 nM CDK4/CyclinD1 (Thermofisher, PR8064A), 1 μM FL-34 (5-FAM-[…]), and the test compound at appropriate dilutions in DMSO. All components were added to the 384-well plate (Corning, 4514), and incubated at Room Temperature for 3 hours. The reaction was terminated by addition of 15 μL Stop Buffer (180 mM HEPES (pH 7.5), 20 mM EDTA, Coating-3 reagent (PerkinElmer, 760050)). The plate was then loaded on Caliper EZ Reader (EZ Reader II, PerkinElmer, HD-4HYSG2772), and the reaction mixtures including substrate and product were sipped into the microfluidic chip for separation and detection. The IC50 values of the test compound were determined by fitting the inhibition curves by 4 parameter sigmoidal dose-response model using the Xlfit5/GraphPad Prism 5 software.

CDK6/CyclinD3 = CDK6/CyclinD3 (Homo sapiens (Human), UniProt Q00534); assay: Assay for inhibition of CDK6/CyclinD3 (Caliper microfluidic kinase assay); assay type: biochemical; settings: summary statement
Procedure: as §1, with “The CDK6” for “The CDK4”, “by CDK6/CyclinD3.” for “by CDK4/CyclinD1.”, “volume is” for “volume was”, “Beta-Glycerophosphate), 300” for “Beta-Glycerophosphate), 200”, “ATP, 2” for “ATP, 1”, “nM CDK6/CyclinD3 (Carna, 04-107),” for “nM CDK4/CyclinD1 (Thermofisher, PR8064A),”

CDK2/CyclinE1 = CDK2/CyclinE1 (Homo sapiens (Human), UniProt P24941); assay: Assay for inhibition of CDK2/CyclinE1 (Caliper microfluidic kinase assay); assay type: biochemical; settings: summary statement
Procedure: The CDK2 enzyme assay for IC50 determination was performed as follows. Microfluidic kinase detection technology (Caliper) was used to monitor the phosphorylation of peptide substrate by CDK2/CyclinE1. The total reaction volume was 15 μL containing buffer A (100 mM HEPES (pH 7.5), 0.1% BSA, 0.01% Triton X-100, 1 mM DTT, 10 mM MgCl2, 10 μM Sodium Orthovanadate, 10 μM Beta-Glycerophosphate), 100 μM ATP, 5 nM CDK2/CyclinE1 (SignalChem, C29-18G), 5 μM FL-18 (5-FAM-QSPKKG-NH2), and the test compound at appropriate dilutions in DMSO. All components were added to the 384-well plate (Corning, 4514), and incubate at Room Temperature for 3 hours. The reaction was terminated by addition of 15 μL Stop Buffer (180 mM HEPES (pH 7.5), 20 mM EDTA, Coating-3 reagent (PerkinElmer, 760050)). The plate was loaded on Caliper EZ Reader (EZ Reader II, PerkinElmer, HD-4HYSG2772), and the reaction mixtures including substrate and product were sipped into the microfluidic chip for separation and detection. The IC50 values of the test compound were determined by fitting the inhibition curves by 4 parameter sigmoidal dose-response model using the Xlfit5/GraphPad Prism 5 software.

T47D breast cancer cells = assay: Anti-proliferation assay in T47D cell (Cyquant); assay type: cell-based, human; settings: for IC50: Homo sapiens, T47D, 144 h, anti-proliferation, day 6 after compound addition
Excerpt: T47D is a human breast cancer cell line commonly used in biomedical research involving the hormonal expression of cancer cells. T47D cells are distinct from other human breast cancer cells in that their progesterone receptors (PR) are not regulated by estradiol, a hormone that is abundant within the cells themselves. T47D cells have been employed in studies of the effects of progesterone on breast cancer and the corresponding transcriptional regulation caused by introduced drugs. The cells have been noted to be extremely resistant to estrogens and antiestrogens.
T47D breast cancer cells from American Type Culture Collection (ATCC, HTB-133) were plated at 3000 cells/well in 96-well plates, and were incubated in RPMI 1640 medium (Gibco, 31800105) with 10% Fetal Bovine Serum (FBS, Biowest, FB-1058) at 37° C., 5% CO2. After overnight incubation, baseline values were measured of the samples from one plate using Cyquant reagent (Invitrogen, C35011) following manufacturer's recommendations. Cells were incubated with the detection reagent for 1 hour at 37° C., and then the fluorescence was measured with excitation at 485 nm and emission at 535 nm using Spectra Max M5 (Molecular Devices, HD-4HYSG3196). Other plates were dosed with compounds at a ten-point dose concentration from 10 μM to 0.51 nM in a 3-fold dilution scheme. On day 6 after compound addition, Cyquant reagent was added and the fluorescence was measured using Spectra Max M5. The IC50 values of the test compound's anti-proliferation activity were determined from the baseline subtracted viability readout curve using Xlfit5/GraphPad Prism 5 software.

[1] = Brain penetration (stated in summary, no method); settings: summary statement
[2] = tested on: Phosphorylation of Retinoblastoma Protein (pRb) Ser807/811 in T47D cell; assay: Inhibition of phosphorylation of retinoblastoma protein (pRb) in T47D cell (ELISA); assay type: cell-based; settings: Homo sapiens, 24 hours incubation, read-out: Phospho T47D Ser807 IC50
Procedure: T47D breast cancer cells from American Type Culture Collection (ATCC, HTB-133) were plated at 40,000 cells/well in 96-well plates, and were incubated in RPMI 1640 medium (Gibco, 31800105) with 10% Fetal Bovine Serum (FBS, Biowest, FB-1058). Cells were then allowed to adhere overnight at 37° C., 5% CO2. The following day, compounds were titrated in a 3-fold dilution scheme, and the highest compound concentration tested was […]. After 24 hours incubation with compounds, cells were lysed in ice-cold lysis buffer containing phosphatase inhibitor cocktail and 1 mM PMSF. Cell lysates (50 μL/well) were then transferred to ELISA plates (pRb Ser807/811 ELISA kit, Cell Signaling, 13152 or pRb Ser780 ELISA kit, Cell Signaling, 13016)). Plates were incubated overnight at 4° C., with constant slow speed shaking. After incubation, plates were washed following manufacturer's recommendations, and then 100 μL reconstituted detection antibody was added to each well and incubated for 1 hour at 37° C. After incubation, plates were washed, and then 100 μL reconstituted HRP-linked secondary antibody was added to each well and incubated for 30 mins at 37° C. […] Plates were read on the Envision plate reader (PerkinElmer, 2104-0010) using the 96-well […] mode. IC50 values were calculated using 4 parameter sigmoidal dose-response model of Xlfit5/GraphPad Prism 5 software.

CDK4/CyclinD1, sequence (P11802 whole entry): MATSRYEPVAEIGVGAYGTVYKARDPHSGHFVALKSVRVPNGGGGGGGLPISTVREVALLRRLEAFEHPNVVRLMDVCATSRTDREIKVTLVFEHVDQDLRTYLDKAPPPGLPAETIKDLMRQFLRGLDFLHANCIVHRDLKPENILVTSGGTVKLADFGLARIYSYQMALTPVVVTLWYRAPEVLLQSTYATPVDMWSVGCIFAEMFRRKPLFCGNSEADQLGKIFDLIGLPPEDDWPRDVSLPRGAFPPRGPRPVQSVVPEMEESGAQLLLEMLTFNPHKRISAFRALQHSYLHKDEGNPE
CDK4/CyclinD1, sequence (P24385 whole entry partner): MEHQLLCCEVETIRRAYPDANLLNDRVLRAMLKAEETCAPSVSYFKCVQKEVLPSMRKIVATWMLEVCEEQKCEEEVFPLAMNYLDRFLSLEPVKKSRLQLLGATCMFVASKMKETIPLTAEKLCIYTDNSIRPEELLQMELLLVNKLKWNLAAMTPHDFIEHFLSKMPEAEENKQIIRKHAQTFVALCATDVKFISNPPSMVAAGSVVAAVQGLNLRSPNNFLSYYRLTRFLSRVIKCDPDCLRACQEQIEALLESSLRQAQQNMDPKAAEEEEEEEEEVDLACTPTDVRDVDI
CDK6/CyclinD3, sequence (Q00534 whole entry): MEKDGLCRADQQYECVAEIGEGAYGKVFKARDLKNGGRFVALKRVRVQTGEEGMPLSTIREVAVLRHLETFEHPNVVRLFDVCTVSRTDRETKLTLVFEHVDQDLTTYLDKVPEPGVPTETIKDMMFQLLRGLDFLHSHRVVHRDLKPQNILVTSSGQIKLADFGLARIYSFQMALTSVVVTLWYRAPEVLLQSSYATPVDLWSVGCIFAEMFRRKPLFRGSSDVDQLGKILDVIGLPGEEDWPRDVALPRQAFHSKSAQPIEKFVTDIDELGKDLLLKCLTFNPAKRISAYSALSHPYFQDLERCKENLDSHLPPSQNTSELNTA
CDK6/CyclinD3, sequence (P30281 whole entry partner): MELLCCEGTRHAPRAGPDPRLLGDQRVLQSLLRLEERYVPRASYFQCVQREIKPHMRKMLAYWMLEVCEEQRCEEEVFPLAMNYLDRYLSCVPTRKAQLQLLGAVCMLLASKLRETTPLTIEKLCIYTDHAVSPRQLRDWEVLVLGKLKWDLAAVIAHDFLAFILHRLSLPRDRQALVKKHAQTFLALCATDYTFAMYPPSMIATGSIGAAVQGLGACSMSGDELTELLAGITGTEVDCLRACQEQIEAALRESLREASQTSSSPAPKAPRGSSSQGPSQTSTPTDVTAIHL

CC(C)c1cnn2ccc(-c3ccnc(Nc4ccc(N5CC[C@H](N(C)C)CC5=O)cn4)n3)cc12 [Compound A]
inhibition of CDK4 (in words) (CDK4/CyclinD1): actively inhibits | inhibition of CDK6 (in words) (CDK6/CyclinD3): actively inhibits | inhibition of CDK2 (in words) (CDK2/CyclinE1): actively inhibits | anti-proliferation activities (in words) (T47D breast cancer cells; summary statement): strong

CC(C)N1CCN(c2ccc(Nc3nccc(-c4cc5c(ncn5C(C)C)c(F)n4)n3)nc2)CC1 [Compound B]
selectivity of CDK4 inhibition (in words) (CDK4/CyclinD1): selectively inhibit | brain penetration (in words) [1]: excellent

CC(C)c1cnn2ccc(-c3ccnc(Nc4ccc(N5CC[C@H](N(C)C)CC5=O)cn4)n3)cc12 [Synthetic Example 3]
IC50 (T47D breast cancer cells): < 0.1 µM | IC50 [2]: < 0.1 µM

CC(C)c1cnn2ccc(-c3ccnc(Nc4ccc(N5CCC(N(C)C)CC5=O)cn4)n3)cc12 (centres unmarked) [Synthetic Example 1]
IC50 (T47D breast cancer cells): < 0.1 µM

CC(C)N1CCN(c2ccc(Nc3nccc(-c4cc5c(ncn5C(C)C)c(F)n4)n3)nc2)CC1 [Synthetic Example 4]
IC50 (T47D breast cancer cells): < 0.1 µM

CC(C)c1cnn2ccc(-c3ccnc(Nc4ccc(N5CC[C@@H](N(C)C)CC5=O)cn4)n3)cc12 [Synthetic Example 2]
IC50 (T47D breast cancer cells): < 0.1 µM
